The source of these data is US20200215016A1, “Ketone Bodies To Protect Tissues From Damage By Ionizing Radiation” (TDELTAS LIMITED, priority 2012, published 2020).

One data set relates to HOS cells. As to the kind of experiment: Protection of cultured osteoblasts against proton radiation (4 MeV): cell survival and DNA damage. It counts as cell-based, human. The note with it: ketone treatment prior to proton radiation (4 MeV). As to the method: FIG. 3 is a pair of graphs and images illustrating protection against proton radiation after administration of ketones. HOS cells were treated with ketone esters either pre- or post-proton radiation (4 MeV). […] The methods used in the studies of cultured cells were the same as previously reported in Miller A. C. et al., Int. J. of Radiation Biol. 1997, 72: 211-18. The ester composition used was the mono R 3 hydroxybutyryl-R-1,3 butanediol enantiomerically enriched in the 1 position of R-1,3 butanediol. Studies were performed using cultured osteoblasts exposed to gamma radiation with and without (R)-1,3-butanediol ester of (R)-3-hydroxybutyrate as described herein to determine the effect of ketone esters on radiation damage. FIG. 1 is a pair of graphs illustrating cellular radioprotection by ketone esters in which human cultured osteoblast cells were treated pre- or post […] gamma radiation (0.6 Gy/min) with a ketone ester. FIG. 2 illustrates chromosomal protection by ketone esters. FIG. 3 is a pair of graphs illustrating protection against proton radiation after administration of ketones in which human cultured osteoblast cells were treated pre- or post-proton radiation (4 MeV) with a ketone ester. FIG. 4 is a graph illustrating ketone ester stability at pH 7. FIG. 5 is a graph illustrating ketone ester blood metabolite levels. […]

Data set [1] can be described thus: Ketone ester blood metabolite levels / ketosis after administration. Type of data set: in vivo. The note with it: FIG. 5: 5 grams/kg dose, males. As to the method:
FIG. 5 is a graph illustrating ketone ester blood metabolite levels (5 grams/kg dose, males).
To maintain elevated blood ketone body concentrations over a 24 hour period, delayed release formulations can be used. The release of the (R)-3-hydroxybutyrate derivatives can be controlled by a number of formulation techniques. For example, techniques such as enteric coatings, film coatings, microencapsulation and the like can be used to retard release of the (R)-3-hydroxybutyrate derivatives as is known to those of ordinary skill in the art.

Data set [2] deals with Human osteoblast cells (HOS). As to the kind of experiment: Cellular radioprotection of cultured osteoblasts exposed to 60Co gamma radiation. The note with it: ketone ester administered after radiation. Type of data set: cell-based. As to the method:
FIG. 1 is a pair of graphs illustrating cellular radioprotection by ketone esters. Human osteoblast cells (HOS) were treated with ketone esters either pre-(left panel) or post-(right panel) ^60Co gamma radiation (0.6 Gy/min). The methods used in the studies of cultured cells were the same as previously reported in Miller A. C. et al., Int. J. of Radiation Biol. 1997, 72: 211-18. The ester composition used was the mono R 3 hydroxybutyryl-R-1,3 butanediol enantiomerically enriched in the 1 position of R-1,3 butanediol. Studies were performed using cultured osteoblasts exposed to gamma radiation with and without (R)-1,3-butanediol ester of (R)-3-hydroxybutyrate as described herein to determine the effect of ketone esters on radiation damage. FIG. 1 is a pair of graphs illustrating cellular radioprotection by ketone esters in which human cultured osteoblast cells were treated pre- or post […] gamma radiation (0.6 Gy/min) with a ketone ester. FIG. 2 illustrates chromosomal protection by ketone esters. FIG. 3 is a pair of graphs illustrating protection against proton radiation after administration of ketones in which human cultured osteoblast cells were treated pre- or post-proton radiation (4 MeV) with a ketone ester. FIG. 4 is a graph illustrating ketone ester stability at pH 7. FIG. 5 is a graph illustrating ketone ester blood metabolite levels. […]

For the compound `C[C@@H](O)CCOC(=O)C[C@@H](C)O` [ketone esters, mono R 3 hydroxybutyryl-R-1,3 butanediol], the cell survival entry with HOS cells (FIG. 3 left graph) is on record as “increased cell survival”. Besides, the DNA damage entry with HOS cells (FIG. 3 right graph) was “mitigated DNA damage”. For the same compound, in data set [1], the generation of ketosis result is “sustained generation of ketosis over a period of hours”. In addition, in data set [2], the cell salvage result was “increases cell salvage”.
